Test results as given in BindingDB's records for doi:10.1124/jpet.301.1.322 (Sanofi Synthelabo, 2002).
Numbering of substitutions follows the chain as printed. “And” between values parts separate entries of the source, which are not always exact repeats. Identical values can stand only once.

Experiments:
[1] = target: T1, Corticotropin-releasing factor receptor 1 (Homo sapiens, UniProt P34998)
T1 sequence (P34998 whole entry): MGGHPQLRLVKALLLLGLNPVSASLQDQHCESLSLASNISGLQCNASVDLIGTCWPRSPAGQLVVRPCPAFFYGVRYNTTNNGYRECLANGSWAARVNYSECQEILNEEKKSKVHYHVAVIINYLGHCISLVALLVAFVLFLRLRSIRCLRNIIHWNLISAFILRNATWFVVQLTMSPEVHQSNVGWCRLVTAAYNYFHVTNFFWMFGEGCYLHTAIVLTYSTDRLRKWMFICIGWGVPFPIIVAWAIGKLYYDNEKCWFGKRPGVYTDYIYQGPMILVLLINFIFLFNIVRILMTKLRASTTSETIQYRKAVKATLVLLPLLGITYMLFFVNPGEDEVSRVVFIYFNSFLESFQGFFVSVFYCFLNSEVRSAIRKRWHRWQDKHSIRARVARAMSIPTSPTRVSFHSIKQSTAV

[2] = target: T2, Corticotropin-releasing factor receptor 1 (Mus musculus, UniProt P35347)
T2 sequence (P35347 whole entry): T1 sequence (P34998 whole entry) with G3Q, H4R, A23T, H29Q, I39V, V118I, M176V, G186A, I232V, H379R

[3] = target: T3, Corticotropin-releasing factor receptor 1 (Rattus norvegicus, UniProt P35353)
T3 sequence (P35353 whole entry): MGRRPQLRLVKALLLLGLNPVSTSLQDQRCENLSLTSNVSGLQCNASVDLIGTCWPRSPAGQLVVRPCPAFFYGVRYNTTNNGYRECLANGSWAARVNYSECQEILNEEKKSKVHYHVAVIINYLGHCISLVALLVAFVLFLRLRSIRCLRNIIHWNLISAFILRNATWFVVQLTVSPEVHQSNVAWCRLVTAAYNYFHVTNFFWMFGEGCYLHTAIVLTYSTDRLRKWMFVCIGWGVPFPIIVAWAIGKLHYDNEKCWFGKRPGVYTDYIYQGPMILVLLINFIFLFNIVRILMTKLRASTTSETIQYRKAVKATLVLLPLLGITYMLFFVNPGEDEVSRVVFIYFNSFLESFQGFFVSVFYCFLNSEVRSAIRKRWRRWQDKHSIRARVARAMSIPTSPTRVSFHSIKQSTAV

Ki [1]: 0.83 nM
Ki [2]: 1.26 nM
Ki [3]: 1.7 nM and 1 nM
SMILES: Cc1ccccc1C(=O)Nc1ccc(C(=O)N2CCCC(O)c3cc(Cl)ccc32)c(C)c1 (stereo not drawn)
